In PubChem BioAssay (NCI):
Where “and” joins values, the source holds several entries; their conditions need not be identical. Equal values may be shown once.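 These data come from cells grown in 96-well plates and exposed to compound for 48 hours at five concentrations. Here, GI50 denotes the concentration required for 50% inhibition of growth. At the TGI there is no net growth.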

Key:
Assay in all cases: inhibition of tumour cell growth, NCI panel, 48 h
[1] = tested on: TK-10 renal
[2] = tested on: 786-0 renal
[3] = tested on: IGROV1 ovarian
[4] = tested on: SF-539 CNS
[5] = tested on: RPMI-8226 leukemia
[6] = tested on: NCI-H226 lung
[7] = tested on: EKVX NSCLC
[8] = tested on: A498 renal
[9] = tested on: HL-60(TB) leukemia
[10] = tested on: SNB-75 CNS

Structure (SMILES): COc1cc(OC)cc(-c2nc3sccn3c2/C=N/N=C(N)N)c1
- GI50 [1]: 6.29 µM
- TGI [1]: 12.6 µM
- GI50 [2]: 7.71 µM
- TGI [2]: 14.4 µM
- GI50 [3]: 11.6 µM
- TGI [3]: 26.2 µM
- GI50 [4]: 8.26 µM
- TGI [4]: 15.7 µM
- GI50 [5]: 10.7 µM
- TGI [5]: 21.6 µM
- GI50 [6]: 6.96 µM
- TGI [6]: 14.8 µM
- GI50 [7]: 8.2 µM
- TGI [7]: 15.9 µM
- GI50 [8]: 9.86 µM
- TGI [8]: 17.3 µM

Structure (SMILES): COc1ccc2c3c(c(C(=O)O)oc13)CCC2
- TGI [1]: > 100 µM
- TGI [2]: > 100 µM
- TGI [3]: > 100 µM
- TGI [4]: > 100 µM
- TGI [9]: > 100 µM
- TGI [5]: > 100 µM
- TGI [10]: > 100 µM
- TGI [6]: 83 µM
- TGI [7]: > 100 µM

Structure (SMILES): CCCCCCCN(CCCCCCC)C(=N)c1ccnc2ccccc12
- GI50 [1]: 1.51 µM
- TGI [1]: 2.97 µM
- GI50 [2]: 1.55 µM
- TGI [2]: 2.97 µM
- GI50 [3]: 1.6 µM
- TGI [3]: 3.37 µM
- GI50 [4]: 1.9 µM
- TGI [4]: 3.58 µM
- GI50 [9]: 1.75 µM
- TGI [9]: 3.7 µM
- GI50 [5]: 1.65 µM
- TGI [5]: 4.21 µM
- GI50 [10]: 1.2 µM
- TGI [10]: 2.77 µM
- GI50 [6]: 1.88 µM
- TGI [6]: 3.78 µM
- GI50 [7]: 1.59 µM
- TGI [7]: 3.15 µM

Structure (SMILES): S=c1nc(C(c2ccccc2)c2ccccc2)[nH][nH]1
- TGI [1]: > 100 µM
- TGI [2]: > 100 µM
- TGI [3]: > 100 µM
- TGI [4]: > 100 µM
- TGI [9]: > 100 µM
- TGI [6]: > 100 µM
- TGI [7]: > 100 µM
- TGI [8]: > 100 µM

Structure (SMILES): Cc1cc(C)nc(NS(=O)(=O)c2ccc(Nc3c4ccccc4nc4c(C(=O)Nc5ccc(S(=O)(=O)Nc6cc(C)on6)cc5)ccc(Cl)c34)cc2)n1
- TGI [1]: > 100 µM
- TGI [2]: 34.1 µM
- TGI [4]: 53 µM
- TGI [5]: 57.8 µM
- TGI [10]: 84.1 µM
- TGI [7]: 62.5 µM
- TGI [8]: 38.3 µM

Structure (SMILES): CN(C)C[C@H]1CCn2c(c(C3=C(c4cn(C)c5ccccc45)C(=O)NC3=O)c3ccccc32)C1
- GI50 [1]: 3.61 µM
- TGI [1]: 8.77 µM
- GI50 [2]: 4.78 µM
- TGI [2]: 9.29 µM
- GI50 [3]: 6.11 µM
- TGI [3]: 12.2 µM
- GI50 [4]: 4.01 µM
- TGI [4]: 7.73 µM
- GI50 [9]: 5.65 µM
- TGI [9]: 11.3 µM
- GI50 [5]: 4.88 µM
- TGI [5]: 10.5 µM
- GI50 [10]: 0.562 µM
- TGI [10]: 5.16 µM
- GI50 [6]: 5.13 µM
- TGI [6]: 14.1 µM
- GI50 [8]: 3.84 µM
- TGI [8]: 9.08 µM

Structure (SMILES): CC(=O)O[C@@]12CO[C@@H]1C[C@H](O)[C@@]1(C)C(=O)[C@H](O)C3=C(C)[C@@H](OC(=O)[C@H](O)[C@@H](NC(=O)OC(C)(C)C)c4ccccc4)C[C@@](O)([C@@H](OC(=O)c4ccccc4)C12)C3(C)C (stereo partly specified)
- TGI [1]: 12.1 µM and > 100 µM
- GI50 [2]: 0.00549 µM
- TGI [2]: 50 µM
- GI50 [3]: 0.0357 µM
- TGI [3]: > 100 µM
- GI50 [4]: < 0.005 µM
- TGI [4]: 19.3 µM and 22.9 µM
- GI50 [9]: < 0.005 µM
- TGI [9]: 0.0241 µM and 0.0348 µM
- GI50 [5]: < 0.005 µM
- TGI [5]: 34 µM and 24.5 µM
- GI50 [6]: 12.8 µM
- TGI [6]: > 100 µM
- TGI [8]: 37 µM and 73.1 µM

Structure (SMILES): COc1cc2c(c(O)c1C)C(=O)CC(c1ccccc1)O2 (stereo unspecified)
- TGI [1]: 77.3 µM
- TGI [2]: > 100 µM
- TGI [3]: > 100 µM
- TGI [4]: > 100 µM
- TGI [10]: > 100 µM
- TGI [6]: 41.5 µM
- TGI [7]: > 100 µM
- TGI [8]: > 100 µM

Structure (SMILES): Cc1ccc2[nH]c3c(c2c1)N=c1ccccc1=NO3
- GI50 [1]: 38.2 µM
- TGI [1]: > 100 µM
- GI50 [2]: 35 µM
- TGI [2]: > 100 µM
- GI50 [3]: 32.6 µM
- TGI [3]: > 100 µM
- GI50 [4]: 10.6 µM
- TGI [4]: 27.6 µM
- GI50 [9]: > 100 µM
- TGI [9]: > 100 µM
- GI50 [5]: > 100 µM
- TGI [5]: > 100 µM
- GI50 [10]: 25.4 µM
- TGI [10]: > 100 µM
- GI50 [6]: 70 µM
- TGI [6]: > 100 µM
- GI50 [7]: 26.2 µM
- TGI [7]: > 100 µM

Structure (SMILES): Cc1c(NC(=O)CCl)c(=O)oc2c(C)c3occc(=O)c3cc12
- TGI [1]: 42.6 µM
- TGI [2]: 32.4 µM
- TGI [3]: 31.2 µM
- TGI [9]: 21.9 µM
- TGI [5]: 60.1 µM
- TGI [10]: 8.47 µM
- TGI [7]: 38.2 µM
- TGI [8]: 31.7 µM

Structure (SMILES): CCC[CH2][Sn]([CH2]CCC)([CH2]CCC)[O]C(=O)C(OC(C)=O)c1ccccc1 (stereo unspecified)
- GI50 [1]: 0.244 µM
- TGI [1]: 0.888 µM
- GI50 [2]: 0.157 µM
- TGI [2]: 0.295 µM
- GI50 [3]: 0.153 µM
- TGI [3]: 0.323 µM
- GI50 [4]: 0.165 µM
- TGI [4]: 0.306 µM
- GI50 [5]: 0.0212 µM
- TGI [5]: 0.298 µM
- GI50 [10]: 0.134 µM
- TGI [10]: 0.424 µM
- GI50 [6]: 0.178 µM
- TGI [6]: 0.336 µM
- GI50 [7]: 0.0528 µM
- TGI [7]: 0.21 µM
- GI50 [8]: 0.154 µM
- TGI [8]: 0.305 µM

Structure (SMILES): COc1cccc2c1C(=O)c1c(O)c3c(c(O)c1C2=O)C[C@@](O)(C(C)=O)C[C@@H]3OC1CC([N+]([O-])(Cc2ccccc2)Cc2ccccc2)C(O)C(C)O1 (stereo partly specified)
- TGI [1]: 3.37 µM
- TGI [2]: 2.86 µM
- TGI [3]: 4.82 µM
- TGI [4]: 2.62 µM
- TGI [10]: 4.25 µM
- TGI [7]: 3.47 µM
- TGI [8]: 8.53 µM

Structure (SMILES): NCCOCn1cc(Cc2cccc(OCc3ccccc3)c2)c(=O)[nH]c1=O
- TGI [1]: > 100 µM
- TGI [2]: > 100 µM
- TGI [3]: > 100 µM
- TGI [4]: > 100 µM
- TGI [9]: > 100 µM
- TGI [5]: > 100 µM
- TGI [10]: > 100 µM
- TGI [6]: > 100 µM
- TGI [7]: > 100 µM

Structure (SMILES): Cc1ccc(-c2c(C#N)[n+](=O)c3cc(F)c(F)cc3n2[O-])cc1
- GI50 [1]: 2.37 µM
- TGI [1]: 6.69 µM
- GI50 [2]: 1.54 µM
- TGI [2]: 3.53 µM
- GI50 [3]: 3.59 µM
- TGI [3]: > 100 µM
- GI50 [4]: 15.3 µM
- TGI [4]: 33.9 µM
- GI50 [5]: 1.49 µM
- TGI [5]: 6.99 µM
- GI50 [10]: 19.2 µM
- TGI [10]: 34.6 µM
- GI50 [6]: 15.7 µM
- TGI [6]: 32.3 µM
- GI50 [7]: 21.2 µM
- TGI [7]: 38.9 µM
- GI50 [8]: 21.1 µM
- TGI [8]: 36.5 µM

Structure (SMILES): O=C1CSC(c2ccc(-c3nc4ccccc4[nH]3)cc2)=N1
- GI50 [1]: > 50 µM
- TGI [1]: > 50 µM
- GI50 [2]: 42.5 µM
- TGI [2]: > 50 µM
- GI50 [3]: 21.9 µM
- TGI [3]: > 50 µM
- GI50 [4]: 12.2 µM
- TGI [4]: 42.1 µM
- GI50 [9]: > 50 µM
- TGI [9]: > 50 µM
- GI50 [5]: 11.7 µM
- TGI [5]: > 50 µM
- GI50 [7]: > 50 µM
- TGI [7]: > 50 µM

Structure (SMILES): COc1cc2c3c(n(CCCCNC(=O)OC(C)(C)C)c(=O)c2cc1OC)-c1cc2c(cc1C3=O)OCO2
- GI50 [1]: > 100 µM
- TGI [1]: > 100 µM
- GI50 [2]: 25 µM
- TGI [2]: > 100 µM
- GI50 [3]: > 100 µM
- TGI [3]: > 100 µM
- GI50 [4]: 8.39 µM
- TGI [4]: > 100 µM
- GI50 [10]: 33.2 µM
- TGI [10]: > 100 µM
- GI50 [6]: > 100 µM
- TGI [6]: > 100 µM
- GI50 [7]: > 100 µM
- TGI [7]: > 100 µM
- GI50 [8]: > 100 µM
- TGI [8]: > 100 µM
